From patent publication US20230201113A1, “IMMUNE BOOSTER - SUPPLEMENT TREATMENT KIT AND METHODS OF USE” (priority 2020, published 2023)

System: SARS-CoV-2
Format: in vivo
Conditions: of the 50 subjects in the control group

“hydroxychloroquine [Placebo + hydroxychloroquine]” was tested, and the “subjects resolved from positive to negative through PCR testing after ten days” value was 9 subjects.
